Measurements: US6737383B1, “Herbicidal oxadiazolidines” (priority 1999, dated 2004)

Columns and labels:
[1] = system: crabgrass; test: Test B pre/postemergence crabgrass; format: in vivo, Digitaria sanguinalis
Outline: (§1)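 Response is a visual 0-to-10 score relative to untreated plants, where 0 means no effect and 10 means complete control, taken twelve to sixteen days after application. Treatments went onto soil at planting and onto foliage of 1- to 4-leaf plants, using a surfactant-containing non-phytotoxic solvent.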

[2] = system: giant foxtail; test: Test B pre/postemergence giant foxtail; format: in vivo, Setaria faberii
Outline: as §1

[3] = system: wheat; test: Test B pre/postemergence wheat; format: in vivo, Triticum aestivum
Outline: as §1

[4] = system: duck salad; test: Test B flood test duck salad; format: in vivo, Heteranthera limosa
Outline: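 Plants were grown to the 2-leaf stage before treatment with test chemical, then held in a greenhouse for twelve to sixteen days. Injury was visually rated against untreated controls on a 0–10 scale, where 0 is no effect and 10 is complete control.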

[5] = Postemergence, Rate 250 g/ha, scale 0 to 10, 0 no effect, 10 complete control
[6] = Postemergence, Rate 1000 g/ha, scale 0 to 10 (0 no effect, 10 complete control)
[7] = Preemergence, Rate 500 g/ha, scale 0 (no effect) to 10 (complete control)
[8] = Rate 125 g/ha, Postemergence, scale 0 to 10, 0 no effect, 10 complete control
[9] = Rate 500 g/ha, Postemergence, 0 to 10 scale (0 no effect, 10 complete control)
[10] = Rate 1000 g/ha, Preemergence, scale 0 to 10 (0 no effect, 10 complete control)
[11] = Preemergence, Rate 125 g/ha, scale 0 to 10 (0 no effect, 10 complete control)
[12] = Preemergence, Rate 250 g/ha, scale of 0 to 10 where 0 is no effect and 10 is complete control
[13] = Rate 125 g/ha, Postemergence section (flood test species), scale 0 to 10, 0 no effect, 10 complete control
[14] = Rate 500 g/ha, Postemergence section of Table B, 0 to 10 scale (0 no effect, 10 complete control)
[15] = flood test, listed under Postemergence, Rate 250 g/ha, scale 0 to 10, 0 no effect, 10 complete control
[16] = Postemergence, Rate 62 g/ha, scale 0 to 10, 0 is no effect, 10 is complete control
[17] = Preemergence, Rate 62 g/ha, scale 0 to 10, 0 is no effect, 10 is complete control
[18] = Preemergence, Rate 62 g/ha, scale 0 to 10 (0 no effect, 10 complete control)
[19] = Rate 500 g/ha, Postemergence, scale 0 to 10, 0 no effect, 10 complete control
[20] = Rate 500 g/ha, listed under Postemergence (flood test species), scale 0 to 10, 0 no effect, 10 complete control

CC(C)N(C(=O)n1oc(=O)n(-c2ccccc2Cl)c1=O)c1ccc(F)cc1 [Compound 8]
6: Crabgrass plant response rating [1, 6] | Crabgrass plant response rating [1, 7]
3: Wheat plant response rating [3, 6]
5: Plant response rating, Giant foxtail [2, 11]
2: Giant foxtail plant response rating [2, 9]
0: Crabgrass plant response rating [1, 5] | Crabgrass plant response rating [1, 8] | Crabgrass plant response rating [1, 9] | Giant foxtail plant response rating [2, 5] | Giant foxtail plant response rating [2, 8] | Wheat plant response rating [3, 5] | Plant response rating, Wheat [3, 11] | Plant response rating, Wheat [3, 12] | Wheat plant response rating [3, 7] | Wheat plant response rating [3, 8] | Plant response rating, Wheat [3, 10] | Ducksalad plant response rating [4, 6] | Ducksalad plant response rating [4, 13] | Ducksalad plant response rating [4, 14] | Ducksalad plant response rating [4, 15]
10: Giant foxtail plant response rating [2, 7] | Plant response rating, Giant foxtail [2, 10]
9: Plant response rating, Crabgrass [1, 10] | Plant response rating, Giant foxtail [2, 12]
4: Giant foxtail plant response rating [2, 6]

CCN(CC)C(=O)n1oc(=O)n(-c2ccc(OC(F)(F)F)cc2)c1=O [Compound 12]
6: Plant response rating, Crabgrass [1, 10]
2: Giant foxtail plant response rating [2, 7]
0: Crabgrass plant response rating [1, 5] | Crabgrass plant response rating [1, 6] | Plant response rating, Crabgrass [1, 11] | Plant response rating, Crabgrass [1, 12] | Crabgrass plant response rating [1, 7] | Crabgrass plant response rating [1, 8] | Crabgrass plant response rating [1, 9] | Giant foxtail plant response rating [2, 5] | Giant foxtail plant response rating [2, 6] | Plant response rating, Giant foxtail [2, 11] | Plant response rating, Giant foxtail [2, 12] | Giant foxtail plant response rating [2, 8] | Giant foxtail plant response rating [2, 9] | Wheat plant response rating [3, 5] | Wheat plant response rating [3, 6] | Plant response rating, Wheat [3, 11] | Plant response rating, Wheat [3, 12] | Wheat plant response rating [3, 7] | Wheat plant response rating [3, 8] | Plant response rating, Wheat [3, 10] | Ducksalad plant response rating [4, 6] | Ducksalad plant response rating [4, 13] | Ducksalad plant response rating [4, 14] | Ducksalad plant response rating [4, 15]
8: Plant response rating, Giant foxtail [2, 10]

Cc1ccccc1-n1c(=O)on(C(=O)N(c2ccc(F)cc2F)C(C)C)c1=O [Compound 25]
3: Giant foxtail plant response rating [2, 16]
9: Crabgrass plant response rating [1, 5] | Crabgrass plant response rating [1, 9]
10: Plant response rating, Crabgrass [1, 12] | Crabgrass plant response rating [1, 7] | Plant response rating, Giant foxtail [2, 12] | Giant foxtail plant response rating [2, 7]
0: Wheat plant response rating [3, 16] | Wheat plant response rating [3, 5] | Plant response rating, Wheat [3, 17] | Plant response rating, Wheat [3, 11] | Plant response rating, Wheat [3, 12] | Wheat plant response rating [3, 7] | Wheat plant response rating [3, 8] | Ducksalad plant response rating [4, 16] | Ducksalad plant response rating [4, 13] | Ducksalad plant response rating [4, 14] | Ducksalad plant response rating [4, 15]
5: Plant response rating, Crabgrass [1, 17] | Plant response rating, Giant foxtail [2, 17] | Giant foxtail plant response rating [2, 8]
7: Crabgrass plant response rating [1, 8] | Plant response rating, Giant foxtail [2, 11]
8: Plant response rating, Crabgrass [1, 11] | Giant foxtail plant response rating [2, 5] | Giant foxtail plant response rating [2, 9]
2: Crabgrass plant response rating [1, 16]

Cc1ccccc1-n1c(=O)on(C(=O)N(c2cc(F)ccc2F)C(C)C)c1=O [Compound 68]
9: Plant response rating, Giant foxtail [2, 11]
5: Giant foxtail plant response rating [2, 18]
2: Crabgrass plant response rating [1, 18]
0: Crabgrass plant response rating [1, 16] | Crabgrass plant response rating [1, 5] | Crabgrass plant response rating [1, 8] | Crabgrass plant response rating [1, 19] | Giant foxtail plant response rating [2, 16] | Giant foxtail plant response rating [2, 5] | Giant foxtail plant response rating [2, 8] | Giant foxtail plant response rating [2, 19] | Wheat plant response rating [3, 16] | Wheat plant response rating [3, 5] | Wheat plant response rating [3, 18] | Plant response rating, Wheat [3, 11] | Plant response rating, Wheat [3, 12] | Wheat plant response rating [3, 7] | Wheat plant response rating [3, 8] | Wheat plant response rating [3, 19] | Ducksalad plant response rating [4, 16] | Ducksalad plant response rating [4, 13] | Ducksalad plant response rating [4, 20] | Ducksalad plant response rating [4, 15]
10: Plant response rating, Crabgrass [1, 12] | Crabgrass plant response rating [1, 7] | Plant response rating, Giant foxtail [2, 12] | Giant foxtail plant response rating [2, 7]
3: Plant response rating, Crabgrass [1, 11]

CCN(C(=O)n1oc(=O)n(Cc2cccs2)c1=O)C1CCCCC1 [Compound 82]
0: Crabgrass plant response rating [1, 16] | Crabgrass plant response rating [1, 5] | Crabgrass plant response rating [1, 18] | Plant response rating, Crabgrass [1, 11] | Plant response rating, Crabgrass [1, 12] | Crabgrass plant response rating [1, 7] | Crabgrass plant response rating [1, 8] | Crabgrass plant response rating [1, 19] | Giant foxtail plant response rating [2, 16] | Giant foxtail plant response rating [2, 5] | Giant foxtail plant response rating [2, 18] | Plant response rating, Giant foxtail [2, 11] | Plant response rating, Giant foxtail [2, 12] | Giant foxtail plant response rating [2, 7] | Giant foxtail plant response rating [2, 8] | Giant foxtail plant response rating [2, 19] | Wheat plant response rating [3, 16] | Wheat plant response rating [3, 5] | Wheat plant response rating [3, 18] | Plant response rating, Wheat [3, 11] | Plant response rating, Wheat [3, 12] | Wheat plant response rating [3, 7] | Wheat plant response rating [3, 8] | Wheat plant response rating [3, 19] | Ducksalad plant response rating [4, 16] | Ducksalad plant response rating [4, 13] | Ducksalad plant response rating [4, 20] | Ducksalad plant response rating [4, 15]
